The source of these data is US10085445B2, “Biocorrosion inhibitor for metal” (KURARAY CO., LTD., priority 2013, dated 2018).

Values after ≈ are worked out from the molar mass of the structure shown.

The test system of one data set is male CRj:CD(SD) rats. In words: Oral toxicity test (14-day repeated dose). The class given is in vivo, rat. The following applies: for NOEL (No Observed Effect Level): oral gavage once per day for 14 days, male rats. From the text: A test substance was emulsified and dispersed in 2%-gum arabic aqueous solution (containing 0.5%-Tween80), and forcibly administered to 6-week-old male CRj:CD(SD) rats with an oral gavage needle once per day for 14 days. The body weight variation and general condition were observed during the dosing period. The rats were fasted for one day from the final administration day (with free ingestion of drinking water), and anatomy, collection of blood samples (various blood tests), and mass measurement of the major organs were performed the next day of the final administration. In addition, histopathological examination (optical microscopic observation of HE-stained sliced section) of the liver, kidney, spleen and testis was also performed. The dose was 1000, 250, 60, 15 or 0 mg/k day (administered liquid amount=1 ml/100 g (body weight)/day), and 5 rats were used for each dose.

For data set [1], the system named is Pseudokirchneriella subcapitata. In words: Toxicity test on algae (algae growth inhibitory test, OECD 201). The class given is cell-based. The conditions noted are these: Selenastrum capricornutum; 72 hr, 23° C., growth inhibition; read-out: ErC50 (72 hr). On the procedure:
By reference to the OECD test guideline No. 201, an algae growth inhibitory test of a test substance was performed. To be specific, the following test substance was diluted with a test medium to give a defined dose. A suspension of algae grown to the exponential growth phase by preculture was added at an initial concentration of 1×10^4 cells/ml. After shaking culture in a light irradiation-type bio shaker (Bio Shaker BR-180 LF manufactured by TAITEC) at 23° C., algae cells were counted by a flow cytometer (Cell Lab Quant SC manufactured by BECKMAN COULTER) at 24, 48, and 72 hr from the start of the test, and the growth degree of each test dose was calculated based on the growth degree of the normal control as 100%. Also, ErC50 was calculated from the equation of the approximate curve in a graph plotting the growth inhibitory rate. As a standard substance, potassium dichromate was used.
algae: Pseudokirchneriella subcapitata
test substance (1) and test substance (2), 100, 32, 10, 3.2, 1, 0.32 mg/L (geometric ratio: √{square root over ( )}10) and 0 mg/L (normal control), respectively
standard substance: 3.2, 1, 0.32 mg/L and 0 mg/L (normal control)

Data set [2] relates to sludge in the sewage treatment plant. In words: Bactericidal test on sludge (MTT method). The following applies: 24 hr and 48 hr, about 25° C., visual and MTT. The class given is cell-based. As for the experimental part:
Glucose, peptone, and monopotassium dihydrogen phosphate (each 5 g) were dissolved in water (1 L), and adjusted to pH 7.0±1.0 with sodium hydroxide to give synthetic sewer water, to which sludge in the sewage treatment plant in Mizushima area, Kurashiki-shi, Okayama-ken, Japan, was added at 30 ppm based on dry mass, whereby a bacterial culture was prepared. On the other hand, a test substance was diluted with distilled water in 10 phases to a final concentration of 1000-0.004 ppm (geometric ratio=4) on a 24 well microplate, and used as a test solution. Two wells were used for each concentration. As a comparison target, distilled water+bacterial culture was used as “bacterial culture blank”, and distilled water alone was used as “blank”.
The bacterial culture and test solution prepared above were mixed at a volume ratio 1:1, stood in a thermostatic tank at ambient temperature (about 25° C.) for 24 hr and 48 hr, and the level of sludge influence at each concentration of the test substance was visually observed and confirm by the MTT method. MTT reagent is converted by microorganism mitochondria in the sludge, forms formazan and develops a blue color.
(In general: Formazan colour is commonly taken as a measure of viable cells.)

On to `O=CCCCCCCCC=O` [NL, 1,9-nonanedial], for which the death case result with male CRj:CD(SD) rats (maximum dose of 1000 mg/kg/day, oral, 14 days) was “death case was not found”. For the same compound, the “NOEL (No Observed Effect Level)” value in the data set with male CRj:CD(SD) rats came to 250 mg/kg.
With `O=CCCCC=O` [glutaraldehyde], the “NOEL (No Observed Effect Level)” value with male CRj:CD(SD) rats was determined as 5 mg/kg. Further, the EC50 in data set [1] worked out at 9 µg/mL (≈ 89.9 µM). The compound further showed a sterilizing concentration in data set [2] of 63 ppm.
